Experimental data from PMC8284453 (Antimicrobial Agents and Chemotherapy, 2021).
Values after ≈ are worked out from the molar mass of the structure shown.

Columns and labels:
Assay in all cases: organism not typed
[1] = tested on: Enterobacterales expressing class A ESBLs; assay type: cell-based, E. coli, K. pneumoniae; details: 25 isolates; BLI fixed at 4 μg/ml, AMC 2:1
[2] = tested on: Enterobacterales expressing class A carbapenemases (KPC); assay type: cell-based, K. pneumoniae, E. coli, E. cloacae, Klebsiella oxytoca
[3] = tested on: Enterobacterales expressing class D oxacillinases (OXA-48/48-like); assay type: cell-based, E. coli, K. pneumoniae; details: for MIC50 / MIC90: 25 isolates, BLI fixed at 4 μg/ml, AMC 2:1

## C[C@@H](O)[C@H]1C(=O)N2C(C(=O)O)=C(S[C@H]3CC[S@@+]([O-])C3)S[C@H]12 [Sulopenem]
[1]
  MIC50: 0.12 µg/mL (≈ 0.343 µM)
  MIC90: 0.5 µg/mL (≈ 1.43 µM)
  MIC range: 0.03 to 1 µg/mL
[2]; 25 isolates, BLI fixed at 4 μg/ml, AMC 2:1
  MIC50: 32 µg/mL (≈ 91.6 µM)
[2]; 25 isolates, BLI fixed at 4 μg/ml, AMC 2:1, listed as sulopenem
  MIC90: ≥ 64 µg/mL
[2]; E. cloacae 847426 (KPC)
  MIC: ≥ 64 µg/mL
[2]; E. cloacae 847429 (KPC)
  MIC: ≥ 64 µg/mL
[2]; E. cloacae OIMGH49 (p99 AmpC, ACT-2, KPC-2, TEM-1)
  MIC: ≥ 64 µg/mL
[2]; E. coli 786978 (KPC)
  MIC: ≥ 64 µg/mL
[2]; K. oxytoca 847537 (KPC)
  MIC: ≥ 64 µg/mL
[2]; K. oxytoca 847539 (KPC)
  MIC: 4 µg/mL (≈ 11.4 µM)
[2]; K. pneumoniae 155140 (AmpC, KPC-2, SHV-12, TEM-1)
  MIC: ≥ 64 µg/mL
[2]; K. pneumoniae 845661 (KPC)
  MIC: ≥ 64 µg/mL
[2]; K. pneumoniae 845662 (KPC)
  MIC: ≥ 64 µg/mL
[2]; K. pneumoniae 845665 (KPC)
  MIC: ≥ 64 µg/mL
[2]; K. pneumoniae 845667 (KPC)
  MIC: ≥ 64 µg/mL
[2]; K. pneumoniae 845670 (KPC)
  MIC: 16 µg/mL (≈ 45.8 µM)
[2]; K. pneumoniae 845904 (KPC)
  MIC: 16 µg/mL (≈ 45.8 µM)
[2]; K. pneumoniae 847204 (KPC)
  MIC: 32 µg/mL (≈ 91.6 µM)
[2]; K. pneumoniae 847375 (KPC)
  MIC: 32 µg/mL (≈ 91.6 µM)
[2]; K. pneumoniae 847378 (KPC)
  MIC: 32 µg/mL (≈ 91.6 µM)
[2]; K. pneumoniae 847379 (KPC)
  MIC: 8 µg/mL (≈ 22.9 µM)
[2]; K. pneumoniae 847383 (KPC)
  MIC: 32 µg/mL (≈ 91.6 µM)
[2]; K. pneumoniae 847384 (KPC)
  MIC: ≥ 64 µg/mL
[2]; K. pneumoniae 847387 (KPC)
  MIC: 32 µg/mL (≈ 91.6 µM)
[2]; K. pneumoniae 847747 (KPC)
  MIC: 32 µg/mL (≈ 91.6 µM)
[2]; K. pneumoniae 848832 (KPC)
  MIC: ≥ 64 µg/mL
[2]; K. pneumoniae 848844 (KPC)
  MIC: 32 µg/mL (≈ 91.6 µM)
[2]; K. pneumoniae 897067 (KPC)
  MIC: 8 µg/mL (≈ 22.9 µM)
[2]; K. pneumoniae UMM (KPC-2, SHV-5, TEM-1)
  MIC: 16 µg/mL (≈ 45.8 µM)
[3]
  MIC50: 8 µg/mL (≈ 22.9 µM)
  MIC90: 16 µg/mL (≈ 45.8 µM)
[3]; listed as sulopenem
  MIC50: 4 to 8 µg/mL
  MIC90: 16 to 32 µg/mL
[3]; E. coli 664507 (OXA-48)
  MIC: 8 µg/mL (≈ 22.9 µM)
[3]; E. coli 664516 (OXA-48)
  MIC: 16 µg/mL (≈ 45.8 µM)
[3]; E. coli 664520 (OXA-48)
  MIC: 8 µg/mL (≈ 22.9 µM)
[3]; E. coli 664522 (OXA-48)
  MIC: 16 µg/mL (≈ 45.8 µM)
[3]; E. coli 664523 (OXA-48)
  MIC: 4 µg/mL (≈ 11.4 µM)
[3]; E. coli 664524 (OXA-48)
  MIC: 8 µg/mL (≈ 22.9 µM)
[3]; E. coli 664525 (OXA-48)
  MIC: 16 µg/mL (≈ 45.8 µM)
[3]; E. coli 664526 (OXA-48)
  MIC: 8 µg/mL (≈ 22.9 µM)
[3]; E. coli 664528 (OXA-48)
  MIC: 8 µg/mL (≈ 22.9 µM)
[3]; E. coli 787112 (OXA-48)
  MIC: 16 µg/mL (≈ 45.8 µM)
[3]; E. coli SI-422 (OXA-48)
  MIC: 4 µg/mL (≈ 11.4 µM)
[3]; E. coli VER (OXA-48)
  MIC: 4 µg/mL (≈ 11.4 µM)
[3]; K. pneumoniae 6299 (OXA-163)
  MIC: 1 µg/mL (≈ 2.86 µM)
[3]; K. pneumoniae 515746 (OXA-48), first line
  MIC: 2 µg/mL (≈ 5.72 µM)
[3]; K. pneumoniae 515746 (OXA-48), second line
  MIC: 4 µg/mL (≈ 11.4 µM)
[3]; K. pneumoniae 664438 (OXA-48)
  MIC: 8 µg/mL (≈ 22.9 µM)
[3]; K. pneumoniae 664439 (OXA-48)
  MIC: 8 µg/mL (≈ 22.9 µM)
[3]; K. pneumoniae 664509 (OXA-48)
  MIC: ≥ 64 µg/mL
[3]; K. pneumoniae 664518 (OXA-48)
  MIC: 8 µg/mL (≈ 22.9 µM)
[3]; K. pneumoniae 722870 (OXA-48)
  MIC: 8 µg/mL (≈ 22.9 µM)
[3]; K. pneumoniae BAH (OXA-204)
  MIC: 4 µg/mL (≈ 11.4 µM)
[3]; K. pneumoniae DEL (OXA-232)
  MIC: 32 µg/mL (≈ 91.6 µM)
